How the values were obtained:
[1] = system: IL-2; assay: Production of IL-2 in mice suffering from L1210 leukemia (CTLL cell 3H-TdR incorporation); format: in vivo, DBA/2 mice; settings: 20 mg/kg, iv × 7
Protocol: Each of 60 DBA/2 mice was inoculated subcutaneously with 1×10^4 L1210 leukemia cells of mice. Next day, the mice were grouped randomly into 6 groups (10 mice per group): Lentinan 20 mg/kg, the injection of the invention (6.25 ml/kg, 12.5 ml/kg and 25 ml/kg), solvent control and NS control. Animals were administered, i.v., for 7 days, then sacrificed. Spleens were picked up in aseptic condition. Splenocytes were prepared and adjusted into 1×10^7/ml. To each well of a 24 well plate were added splenocytes cells (2 ml) and Con A (5 μg/ml). After the plate was incubated in a 37° C. incubator under 5% CO2 for 24 h, the supernate was collected. The activity of IL-2 was determined in IL-2 dependent CTLL cell strain by using the method of ^3H-TdR incorporation.

[2] = system: NK cells; assay: Activity of NK cells in mice bearing cancer; format: in vivo, DBA/2 mice; settings: 20 mg/kg, iv × 7
Protocol: Each of 60 DBA/2 mice was inoculated subcutaneously with 1×10^4 L1210 leukemia cells of mice. Next day, the mice were grouped randomly into 6 groups (10 mice per group): Lentinan 20 mg/kg, the injection of the invention (6.25 ml/kg, 12.5 ml/kg and 25 ml/kg), solvent control and NS control. Animals were administered, i.v., for 7 days, then sacrificed. Spleens were picked up in aseptic condition. Splenocytes were prepared and adjusted into 1×10^6/ml. The activity of NK cells was detected by using the inhibition on ^3H-TdR incorporation. To wells of a 96 well microplate were added splenocytes cells (effector cells) 100 μl/well, YAC-1 cells (target cells, 1×10^4 cells/ml) 100 μl/well and ^3H-TdR 0.5 μci/well, in triplicate. After being incubated in a 37° C. incubator under 5% CO2 for 24 h, cells were collected, and CPM values were determined. The specific percentage inhibition (Pi), indicating the activity of NK cells, was calculated according to the above formula.

[3] = system: NK cells; assay: Activity of NK cells in mice in vitro (inhibition of 3H-TdR incorporation, YAC-1 target cells); format: cell-based, C57BL/6 mice; settings: for CPM (x ± SD), activity of NK cells in mice in vitro: splenocytes:YAC-1 100:1, 24 h
Protocol: Method: The activity of NK cells were detected by the inhibition on ^3H-TdR incorporation.
Spleens were picked up from C57BL/6 mice in aseptic condition. Splenocytes, as effector cells, were adjusted to 1×10^6 cells/ml. YAC-1 cells, target cells, which have been cultured for 24 h, were adjusted to 1×10^4 cells/ml. The cells were added into wells of a 96 well microplate (100 μl/well). The experiment groups were as follows: the injection of the invention in four concentrations, lentinan (positive control group) in four concentrations, corresponding solvent (blank control I) and medium (blank control II). To each well of a 96 well microplate were added Splenocytes: YAC-1 cells=100: 1 (100 μl), test sample (100 μl) and ^3H-TdR 0.5 μci/well. After being incubated in a 37° C. incubator under 5% CO2 for 24 h, cells were collected, and CPM values were determined. The specific percentage inhibition (Pi), indicating the activity of NK cells, was calculated according to the formula: Pi=(1−CPMExp./CPMcont.)×100%

[4] = system: mice bearing L1210 leukemia cells; assay: Splenic lymphopoiesis in mice bearing L1210 leukemia cells; format: in vivo, DBA/2 mice; settings: 20 mg/kg, iv × 7
Protocol: Each of 60 DBA/2 mice was inoculated subcutaneously with 1×10^4 L1210 leukemia cells of mice. Next day, the mice were grouped randomly into 6 groups (10 mice per group): Lentinan 20 mg/kg, the injection of the invention (6.25 ml/kg, 12.5 ml/kg and 25 ml/kg), solvent control and NS control. Animals were administered, i.v., for 7 days, then sacrificed. Spleens were picked up in aseptic condition. Splenocytes were counted and adjusted into 1×10^7/ml. Cells (100 μl/well) and medium (100 μl/well) were added into wells of a 96 well microplate in triplicate. The 96 well microplate was incubated in a 37° C. incubator under 5% CO2 for 48 h. Then, ^3H-TdR (0.5 μci/well) was added and the incubation was continued for 20 h. Cells were collected, and CPM values were determined and compared with control groups. […] Lentinan has also shown immuno-enhancement effect.

[5] = system: Splenocytes; assay: Splenic lymphopoiesis induced by ConA in mice in vitro (3H-TdR incorporation); format: cell-based, C57BL/6 mice
Protocol: Spleens were picked up from C57BL/6 mice in aseptic condition. Splenocytes were separated and the concentration of cells was adjusted to 1×10^7 cells/ml with RPMI 1640+15% FCS medium. The experiment groups were as follows: the injection of the invention in four concentrations, lentinan (positive control group) in four concentrations, corresponding solvent (blank control I) and medium (blank control II). 100 μl Cells, 100 μl solution of drug/control and 50 μl ConA were added in each well in triplicate. The 96 well microplate was incubated in a 37° C. incubator under 5% CO2 for 48 h. ^3H-TdR (0.5 μci/well) was added and the incubation was continued for 20 h. Cells were collected, and CPM values were determined in a liquid scintillation counter and compared with control groups. It is shown in the results (table 3) that the injection of the invention, as same as lentinan, has obviously facilitated the splenic lymphopoiesis in mice in vitro and the effect is linear dependent to the concentration.

Lentinan
CPM (x ± SD), production of IL-2 in mice suffering from L1210 leukemia [1]: 2750 ± 123 CPM
CPM (x ± SD), activity of NK cells in mice bearing cancer [2]: 5660 ± 260 CPM
Pi (%), activity of NK cells in mice bearing cancer [2]: 54.5%
Pi % (specific percentage inhibition, activity of NK cells) in vitro ([3]; 100 μl (1:1)): 33.5%
CPM (x ± SD), activity of NK cells in mice in vitro ([3]; 100 μl (1:1)): 8130 ± 930 CPM
Pi % (specific percentage inhibition, activity of NK cells) in vitro ([3]; 100 μl (1:2)): 35.5%
CPM (x ± SD), activity of NK cells in mice in vitro ([3]; 100 μl (1:2)): 7892 ± 995 CPM
Pi % (specific percentage inhibition, activity of NK cells) in vitro ([3]; 100 μl (1:4)): 54.5%
CPM (x ± SD), activity of NK cells in mice in vitro ([3]; 100 μl (1:4)): 5544 ± 85 CPM
Pi % (specific percentage inhibition, activity of NK cells) in vitro ([3]; 100 μl (stock solution)): 29.5%
CPM (x ± SD), activity of NK cells in mice in vitro ([3]; 100 μl (stock solution)): 8625 ± 1135 CPM
CPM (x ± SD), splenic lymphopoiesis in mice bearing L1210 leukemia cells [4]: 7410 ± 770 CPM
CPM (x ± SD), splenic lymphopoiesis in mice in vitro ([5]; 100 μl (1:1)): 7700 ± 747 CPM
CPM (x ± SD), splenic lymphopoiesis in mice in vitro ([5]; 100 μl (1:2)): 11025 ± 1133 CPM
CPM (x ± SD), splenic lymphopoiesis in mice in vitro ([5]; 100 μl (1:4)): 11555 ± 1279 CPM
CPM (x ± SD), splenic lymphopoiesis in mice in vitro ([5]; 100 μl (stock solution)): 7420 ± 957 CPM

From patent US9585858B2, “Pharmaceutical composition containing 13 triglycerides, and preparations and use thereof” (ZHEJIANG KANGLAITE GROUP CO., LTD., priority 2014, dated 2017)
